Article PMC9732253, “Inhibition of the Phosphatidylinositol-3 Kinase Pathway Using Bimiralisib in Loss-of-Function NOTCH1-Mutant Head and Neck Cancer” (The Oncologist, 2022)

Settings: n = 8
Procedure: All patients received 140 mg bimiralisib (PQR309) orally once daily on 2 consecutive days followed by 5 days without treatment weekly until unacceptable toxicity, tumor progression, patient request for withdrawal, investigator judgment, or death.
Radiologic tumor assessments were performed using computed tomography at baseline and every 6 weeks. Safety was continuously monitored.

Nc1cc(C(F)(F)F)c(-c2nc(N3CCOCC3)nc(N3CCOCC3)n2)cn1 [Bimiralisib, 5-(4,6-dimorpholino-1,3,5-triazin-2-yl)-4-(trifluoromethyl)pyridin-2-amine]
General disorders and administration site conditions, Grade 1, total number of events: 6
General disorders and administration site conditions, Grade 2, patients: 1 (12.5) n (%)
General disorders and administration site conditions, Grade 2, total number of events: 1
General disorders and administration site conditions, Grade 3/4, patients: 1 (12.5) n (%)
General disorders and administration site conditions, Grade 3/4, total number of events: 1
Hemorrhage, Grade 1, patients: 0 n (%)
Hemorrhage, Grade 1, total number of events: 0
Hemorrhage, Grade 2, patients: 0 n (%)
Hemorrhage, Grade 2, total number of events: 0
Hemorrhage, Grade 3/4, patients: 1 (12.5) n (%)
Hemorrhage, Grade 3/4, total number of events: 1
Hyperglycemia, Grade 1, patients: 1 (12.5) n (%)
Hyperglycemia, Grade 1, total number of events: 1
Hyperglycemia, Grade 2, patients: 0 n (%)
Hyperglycemia, Grade 2, total number of events: 0
Hyperglycemia, Grade 3/4, patients: 2 (25.0) n (%)
Hyperglycemia, Grade 3/4, total number of events: 2
Hypocalcemia, Grade 1, patients: 0 n (%)
Hypocalcemia, Grade 1, total number of events: 0
Hypocalcemia, Grade 2, patients: 1 (12.5) n (%)
Hypocalcemia, Grade 2, total number of events: 1
Hypocalcemia, Grade 3/4, patients: 0 n (%)
Hypocalcemia, Grade 3/4, total number of events: 0
Hypotension, Grade 1, patients: 1 (12.5) n (%)
Hypotension, Grade 1, total number of events: 1
Hypotension, Grade 2, patients: 0 n (%)
Hypotension, Grade 2, total number of events: 0
Hypotension, Grade 3/4, patients: 0 n (%)
Hypotension, Grade 3/4, total number of events: 0
Infections and infestations, Grade 3/4, patients: 3 (37.5) n (%)
Injury, poisoning and procedural complications, Grade 1, patients: 1 (12.5) n (%)
Injury, poisoning and procedural complications, Grade 1, total number of events: 1
Injury, poisoning and procedural complications, Grade 2, patients: 0 n (%)
Injury, poisoning and procedural complications, Grade 2, total number of events: 0
Injury, poisoning and procedural complications, Grade 3/4, patients: 0 n (%)
Injury, poisoning and procedural complications, Grade 3/4, total number of events: 0
Investigations, Grade 1, patients: 3 (37.5) n (%)
Investigations, Grade 1, total number of events: 3
Investigations, Grade 2, patients: 0 n (%)
Investigations, Grade 2, total number of events: 0
Investigations, Grade 3/4, patients: 1 (12.5) n (%)
Investigations, Grade 3/4, total number of events: 2
Laryngeal stenosis, Grade 1, patients: 0 n (%)
Laryngeal stenosis, Grade 1, total number of events: 0
Laryngeal stenosis, Grade 2, patients: 0 n (%)
Laryngeal stenosis, Grade 2, total number of events: 0
Laryngeal stenosis, Grade 3/4, patients: 1 (12.5) n (%)
Laryngeal stenosis, Grade 3/4, total number of events: 1
Metabolism and nutrition disorders, Grade 1, patients: 1 (12.5) n (%)
Metabolism and nutrition disorders, Grade 1, total number of events: 1
Metabolism and nutrition disorders, Grade 2, patients: 2 (25.0) n (%)
Metabolism and nutrition disorders, Grade 2, total number of events: 3
Metabolism and nutrition disorders, Grade 3/4, patients: 2 (25.0) n (%)
Metabolism and nutrition disorders, Grade 3/4, total number of events: 2
Musculoskeletal and connective tissue disorders, Grade 1, patients: 1 (12.5) n (%)
Musculoskeletal and connective tissue disorders, Grade 1, total number of events: 2
Musculoskeletal and connective tissue disorders, Grade 2, patients: 0 n (%)
Musculoskeletal and connective tissue disorders, Grade 2, total number of events: 0
Musculoskeletal and connective tissue disorders, Grade 3/4, patients: 0 n (%)
Musculoskeletal and connective tissue disorders, Grade 3/4, total number of events: 0
Nausea, Grade 1, patients: 1 (12.5) n (%)
Nausea, Grade 1, total number of events: 1
Nausea, Grade 2, patients: 2 (25.0) n (%)
Nausea, Grade 2, total number of events: 2
Nausea, Grade 3/4, patients: 0 n (%)
Nausea, Grade 3/4, total number of events: 0
Neck pain, Grade 1, patients: 1 (12.5) n (%)
Neck pain, Grade 1, total number of events: 1
Neck pain, Grade 2, patients: 0 n (%)
Neck pain, Grade 2, total number of events: 0
Neck pain, Grade 3/4, patients: 0 n (%)
Neck pain, Grade 3/4, total number of events: 0
Nervous system disorders, Grade 1, patients: 1 (12.5) n (%)
Nervous system disorders, Grade 1, total number of events: 2
Nervous system disorders, Grade 2, patients: 1 (12.5) n (%)
Nervous system disorders, Grade 2, total number of events: 1
Nervous system disorders, Grade 3/4, patients: 0 n (%)
Nervous system disorders, Grade 3/4, total number of events: 0
Osteomyelitis acute, Grade 1, patients: 0 n (%)
Osteomyelitis acute, Grade 1, total number of events: 0
Osteomyelitis acute, Grade 2, patients: 0 n (%)
Osteomyelitis acute, Grade 2, total number of events: 0
Osteomyelitis acute, Grade 3/4, patients: 1 (12.5) n (%)
Osteomyelitis acute, Grade 3/4, total number of events: 1
Pain in jaw, Grade 1, patients: 1 (12.5) n (%)
Pain in jaw, Grade 1, total number of events: 1
Pain in jaw, Grade 2, patients: 0 n (%)
Pain in jaw, Grade 2, total number of events: 0
Pain in jaw, Grade 3/4, patients: 0 n (%)
Pain in jaw, Grade 3/4, total number of events: 0
Platelet count decreased, Grade 1, patients: 1 (12.5) n (%)
Platelet count decreased, Grade 1, total number of events: 1
Platelet count decreased, Grade 2, patients: 0 n (%)
Platelet count decreased, Grade 2, total number of events: 0
Platelet count decreased, Grade 3/4, patients: 0 n (%)
Platelet count decreased, Grade 3/4, total number of events: 0
Pneumonia aspiration, Grade 1, patients: 0 n (%)
Pneumonia aspiration, Grade 1, total number of events: 0
Pneumonia aspiration, Grade 2, patients: 0 n (%)
